Measurements reported in patent US11230527B2, “Solid forms of 2-(5-(4-(2-morpholinoethoxy)phenyl)pyridin-2-yl)-n- benzylacetamide” (Athenex HK Innovative Limited, priority 2017, dated 2022).
In brackets after ≈: the same amount, converted by molar mass. Read-outs that look alike come from different tables or passages of the source.

Legend:
Assay type in all cases: physicochemical
[1] = XRPD physical form stability under storage conditions; conditions: up to eight weeks
Description: XRPD analysis is carried out using a diffractometer running in reflection mode. The 2-theta position is calibrated against a standard before running the experiment. XRPD analysis was carried out on a Panalytical X'Pert^3 Powder XRPD on a Si zero-background holder, scanning the samples between 3 and 40° 2-theta. The 2-theta position was calibrated against Panalytical 640 Si powder standard. The test material was gently compressed on a glass disc inserted into a sample holder. The sample was then loaded into a Panalytical X'Pert^3 Powder XRPD diffractometer running in reflection mode and analyzed, using the following experimental conditions.

Solubility estimation = assay: Solubility estimation
Description: Solubility of the solid forms of the present application in a variety of solvents is measured. Solvent is added to a sample until the total volume reaches 100 μL, followed by 100 μL per step until the sample is dissolved or the concentration is less than <1.0 mg/mL. The approximate solubility is then calculated.
Solubility of the solid forms of the present application in a variety of solvents was measured according to the following procedures. A sample (˜2 mg) was weighed into a 4-mL glass vial. Solvent was added into the vial stepwise at 50 μL per step until the total volume was 100 μL, followed by 100 μL per step until concentration was less than 1.0 mg/mL. The solutions were mixed thoroughly after each addition by sonication for 2 minutes and vortexing for 1 minute. The addition of solvent was complete if the sample was dissolved or the concentration was <1.0 mg/mL. The volumes of solvent (V1 and V2) were recorded, and approximate solubility was calculated.

[2] = HPLC chemical stability after storage at various conditions; conditions: for Area Percent at 248 nm T1 week: 1 week; for Area Percent at 248 nm T2 week: 2 weeks; for Area Percent at 248 nm T4 week: 4 weeks; for Area Percent at 248 nm T8 week: 8 weeks; for change in HPLC area percent purity (LCAP): selected storage conditions, time points over eight-week study
Description: High-performance Liquid Chromatography (HPLC) analysis was performed to determine the chemical stability of Forms A, B, and C of Compound A after storage at various conditions, using an Agilent 1100 system with DAD. Chemical stability was estimated by measuring and comparing the area percent of the material peak at various time points. For High-performance Liquid Chromatography (HPLC) analysis, an Agilent 1100 system with DAD was used.

[3] = Dynamic Vapor Sorption (DVS); conditions: for XRPD pattern after exposure to DVS experiment: 25° C. and RH up to 95%; for water uptake: between 0 and 80% RH at between 25° C. and 45° C.
Description: Dynamic Vapor Sorption (DVS) was measured using a SMS (Surface Measurement Systems) DVS Intrinsic. The test was performed at 25° C. while the RH was varied from 0% to 95% at 10% increments in the range of 0% RH-90% RH and at 5% increment up to 95% RH. The change in mass after each increase or decrease in the RH was recorded as a percentage of the original mass of the starting material. Dynamic Vapor Sorption (DVS) was measured using a SMS (Surface Measurement Systems) DVS Intrinsic, using the following parameters: [table]

## O=C(Cc1ccc(-c2ccc(OCCN3CCOCC3)cc2)cn1)NCc1ccccc1 [Form C, 2-(5-(4-(2-morpholinoethoxy)phenyl)pyridin-2-yl)-N-benzylacetamide]
[1]; 25° C./60% RH
  change in physical form (XRPD): no change in physical form
[1]; 40° C./75% RH
  change in physical form (XRPD): no change in physical form
[1]; 55° C./75% RH
  change in physical form (XRPD): no change in physical form
[1]; ambient conditions
  change in physical form (XRPD): no change in physical form
Solubility estimation; 1,4-Dioxane, organic solvent or mixture, thermodynamic from solid, 1,4-Dioxane, read-out: Solubility
  solubility: 12600 to 25100 µg/mL (≈ 29.2 to 58.2 mM)
Solubility estimation; 2-MeTHF, organic solvent or mixture, thermodynamic from solid, 2-MeTHF, read-out: Solubility
  solubility: 5100 to 6380 µg/mL (≈ 11.8 to 14.8 mM)
Solubility estimation; ACN, organic solvent or mixture, thermodynamic from solid, ACN, read-out: Solubility
  solubility: 4430 to 5540 µg/mL (≈ 10.3 to 12.8 mM)
Solubility estimation; Acetone, organic solvent or mixture, thermodynamic from solid, Acetone, read-out: Solubility
  solubility: 5690 to 8590 µg/mL (≈ 13.2 to 19.9 mM)
Solubility estimation; CHCl3, organic solvent or mixture, thermodynamic from solid, CHCl3, read-out: Solubility
  solubility: 25900 to 51800 µg/mL (≈ 60 to 120 mM)
Solubility estimation; DCM, organic solvent or mixture, thermodynamic from solid, DCM, read-out: Solubility
  solubility: 1330 to 1440 µg/mL (≈ 3.08 to 3.34 mM)
Solubility estimation; EtOAc, organic solvent or mixture, thermodynamic from solid, EtOAc, read-out: Solubility
  solubility: 2370 to 2630 µg/mL (≈ 5.49 to 6.09 mM)
Solubility estimation; EtOH, organic solvent or mixture, thermodynamic from solid, EtOH, read-out: Solubility
  solubility: 5140 to 6420 µg/mL (≈ 11.9 to 14.9 mM)
Solubility estimation; H2O, water, thermodynamic from solid, H2O, read-out: Solubility
  solubility: < 1000 µg/mL
Solubility estimation; IPA, organic solvent or mixture, thermodynamic from solid, IPA, read-out: Solubility
  solubility: 1300 to 1390 µg/mL (≈ 3.01 to 3.22 mM)
Solubility estimation; IPAc, organic solvent or mixture, thermodynamic from solid, IPAc, read-out: Solubility
  solubility: 1080 to 1150 µg/mL (≈ 2.5 to 2.66 mM)
Solubility estimation; MIBK, organic solvent or mixture, thermodynamic from solid, MIBK, read-out: Solubility
  solubility: 1610 to 1760 µg/mL (≈ 3.73 to 4.08 mM)
Solubility estimation; MTBE, heated to 50° C.
  solubility: soluble
Solubility estimation; MTBE, organic solvent or mixture, thermodynamic from solid, MTBE, read-out: Solubility
  solubility: < 1000 µg/mL
Solubility estimation; MTBE, room temperature
  solubility: insoluble
Solubility estimation; MeOH, organic solvent or mixture, thermodynamic from solid, MeOH, read-out: Solubility
  solubility: 9580 to 19200 µg/mL (≈ 22.2 to 44.4 mM)
Solubility estimation; THF, organic solvent or mixture, thermodynamic from solid, THF, read-out: Solubility
  solubility: 11000 to 22000 µg/mL (≈ 25.5 to 51 mM)
Solubility estimation; n-Heptane, organic solvent or mixture, thermodynamic from solid, n-Heptane, read-out: Solubility
  solubility: < 1000 µg/mL
Solubility estimation; n-heptane, organic solvent or mixture, thermodynamic from solid, n-heptane, room temperature and when heated to 50° C., read-out: Solubility
  solubility: < 1000 µg/mL
Solubility estimation; organic solvent or mixture, thermodynamic from solid, methanol, ethanol, isopropanol, acetone, MIBK, ethyl acetate, isopropyl acetate, tetrahydrofuran, 2-Me-THF, 1,4-dioxane, acetonitrile, dichloromethane, chloroform, toluene, room temperature and 50° C., read-out: Solubility
  solubility: > 1000 µg/mL
Solubility estimation; toluene, organic solvent or mixture, thermodynamic from solid, toluene, read-out: Solubility
  solubility: 1510 to 1610 µg/mL (≈ 3.5 to 3.73 mM)
Solubility estimation; water, thermodynamic from solid, aqueous solution (water), room temperature and when heated to 50° C., read-out: Solubility
  solubility: < 1000 µg/mL
[2]; 25° C./60% RH
  Area Percent at 248 nm T1 week: 99.9 Area Percent
  Area Percent at 248 nm T2 week: 99.9 Area Percent
  Area Percent at 248 nm T4 week: 99.8 Area Percent
  Area Percent at 248 nm T8 week: 99.9 Area Percent
  Area Percent at 248 nm T0: 99.8 Area Percent
[2]; 40° C./75% RH
  Area Percent at 248 nm T1 week: 99.8 Area Percent
  Area Percent at 248 nm T2 week: 99.8 Area Percent
  Area Percent at 248 nm T4 week: 99.9 Area Percent
  Area Percent at 248 nm T8 week: 99.9 Area Percent
  Area Percent at 248 nm T0: 99.8 Area Percent
[2]; 55° C./75% RH
  Area Percent at 248 nm T1 week: 99.9 Area Percent
  Area Percent at 248 nm T2 week: 99.8 Area Percent
  Area Percent at 248 nm T4 week: 99.8 Area Percent
  Area Percent at 248 nm T8 week: 99.9 Area Percent
  Area Percent at 248 nm T0: 99.8 Area Percent
[2]; Ambient
  Area Percent at 248 nm T1 week: 99.8 Area Percent
  Area Percent at 248 nm T2 week: 99.8 Area Percent
  Area Percent at 248 nm T4 week: 99.8 Area Percent
  Area Percent at 248 nm T8 week: 99.9 Area Percent
  Area Percent at 248 nm T0: 99.8 Area Percent
[2]
  change in HPLC area percent purity (LCAP): no significant decrease
[3]
  hygroscopicity: non-hygroscopic
  XRPD pattern after exposure to DVS experiment: does not change
  water uptake: less than 0.2 % w/w

## O=C(Cc1ccc(-c2ccc(OCCN3CCOCC3)cc2)cn1)NCc1ccccc1 [Form B, 2-(5-(4-(2-morpholinoethoxy)phenyl)pyridin-2-yl)-N-benzylacetamide]
[1]; 25° C./60% RH
  change in physical form (XRPD): no change in physical form
[1]; 40° C./75% RH
  change in physical form (XRPD): no change in physical form
[1]; 55° C./75% RH
  change in physical form (XRPD): no change in physical form
[1]; ambient conditions
  change in physical form (XRPD): no change in physical form
Solubility estimation; aqueous
  thermodynamic aqueous solubility: below 1.5 mg/ml
Solubility estimation; aqueous solution (e.g., water), room temperature
  aqueous solubility (dissolved completely): > 20000 µg/mL
[2]; 25° C./60% RH
  Area Percent at 248 nm T1 week: 99.8 Area Percent
  Area Percent at 248 nm T2 week: 99.7 Area Percent
  Area Percent at 248 nm T4 week: 99.8 Area Percent
  Area Percent at 248 nm T8 week: 99.8 Area Percent
  Area Percent at 248 nm T0: 99.8 Area Percent
[2]; 40° C./75% RH
  Area Percent at 248 nm T1 week: 99.8 Area Percent
  Area Percent at 248 nm T2 week: 99.8 Area Percent
  Area Percent at 248 nm T4 week: 99.7 Area Percent
  Area Percent at 248 nm T8 week: 99.8 Area Percent
  Area Percent at 248 nm T0: 99.8 Area Percent
[2]; 55° C./75% RH
  Area Percent at 248 nm T1 week: 99.8 Area Percent
  Area Percent at 248 nm T2 week: 99.7 Area Percent
  Area Percent at 248 nm T4 week: 99.7 Area Percent
  Area Percent at 248 nm T8 week: 99.7 Area Percent
  Area Percent at 248 nm T0: 99.8 Area Percent
[2]; Ambient
  Area Percent at 248 nm T1 week: 99.8 Area Percent
  Area Percent at 248 nm T2 week: 99.7 Area Percent
  Area Percent at 248 nm T4 week: 99.8 Area Percent
  Area Percent at 248 nm T8 week: 99.8 Area Percent
  Area Percent at 248 nm T0: 99.8 Area Percent
[2]
  change in HPLC area percent purity (LCAP): no significant decrease
[3]
  hygroscopicity: non-hygroscopic
  XRPD pattern after exposure to DVS experiment: does not change
  water uptake: less than 0.2 % w/w
